Experimental data published in US9340577B2, “HLA binding motifs and peptides and their uses” (priority 1992, dated 2016).
Read-outs that look alike come from different tables or passages of the source. No end group written: not given here.

Columns and labels:
DRB1*1101 = DRB1*1101 (Homo sapiens, UniProt P01903+P01911, A100R/A169T/A87E/I96F/K41T/L162R/M171V/P40S/Q125H/Q178H/Q39Y/Q99D/R42S/S66Y/T262R/V115G/W38E); experiment: biochemical
DRB1*1302 = DRB1*1302 (Homo sapiens, UniProt P01903+P01911, A100E/A169T/K41T/L162R/M171V/P40S/Q125H/Q178H/Q39Y/Q99D/R42S/S66N/T262R/V115G/W38E/Y61H); experiment: biochemical; assay type: binding
Sequence of DRB1*1302 (P01903 26-254 limits assumed, other chains not shown): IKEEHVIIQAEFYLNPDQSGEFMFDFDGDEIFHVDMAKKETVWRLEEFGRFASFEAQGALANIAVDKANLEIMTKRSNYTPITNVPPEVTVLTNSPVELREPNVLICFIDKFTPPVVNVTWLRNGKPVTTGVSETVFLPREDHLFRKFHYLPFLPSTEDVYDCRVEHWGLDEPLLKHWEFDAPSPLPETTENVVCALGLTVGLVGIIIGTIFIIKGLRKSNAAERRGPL

A2.1 HLA molecules = A2.1 HLA molecules (Homo sapiens, UniProt P04439, D140Y/D185E/D98H/E176V/E277Q/G131W/G231S/I119V/I121R/I166T/I218V/L300P/L318F/N151K/N90K/P208A/P217A/Q86G/Q94H/R138H/R169H/T345S); assay type: binding; design: A*0201 / A2.1 Binding / A2 Bind. / A2 / A2.1 (binding capacity): scale not given here
HLA-A*0201 (HLA-A2.1) = HLA-A*0201 (HLA-A2.1) (Homo sapiens, UniProt P04439, D140Y/D185E/D98H/E176V/E277Q/G131W/G231S/I119V/I121R/I166T/I218V/L300P/L318F/N151K/N90K/P208A/P217A/Q86G/Q94H/R138H/R169H/T345S); experiment: biochemical; assay type: binding
DR4w4 (DRB1*0401) = DR4w4 (DRB1*0401) (Homo sapiens, UniProt P01903+P01911, A100K/A169T/F76Y/I96L/K127E/L162R/M171V/N62H/P40V/Q125Y/R42H/S133A/S149N/S66Y/V115G/V209L/W38E); experiment: biochemical; assay type: binding
DRB1*0802 = DRB1*0802 (Homo sapiens, UniProt P01903+P01911, A100R/A103L/A169T/F76Y/H45Y/I96F/K41T/L162R/M171V/P40S/Q125H/Q178H/Q39Y/Q99D/R218S/R42G/S66Y/V115G/W38E); experiment: biochemical; assay type: binding
DRB5*0101 = DRB5*0101 (Homo sapiens, UniProt P01903+Q30154); experiment: biochemical; settings: Binding affinity DRB5 *0101
DR7 (DRB1*0701) = DR7 (DRB1*0701) (Homo sapiens, UniProt P01903+P01911, A100R/A102G/A103Q/D57E/D86V/E43K/F76Y/K127E/L162R/M171V/P40G/Q125H/Q99D/R33Q/R42Y/R54Q/S133A/S66F/T210M/V115G/Y107V/Y59L/Y89S); experiment: biochemical; assay type: binding
DRB1*0901 = DRB1*0901 (Homo sapiens, UniProt P01903+P01911, A100R/A103E/D57H/D86V/F55Y/F60I/F76Y/I96F/K127E/L162R/M171V/P40D/Q125H/Q99R/R33Q/R42F/S133A/S66N/T210M/V115G/W38K/Y107V/Y59G/Y89S); experiment: biochemical; assay type: binding
DRB1*1501 = DRB1*1501 (Homo sapiens, UniProt P01903+P01911); experiment: biochemical; assay type: binding

Sequence of DRB1*1101 (P01903 26-254 limits assumed, other chains not shown): as above

Q: Which results are given for SEVYDFAFADLTVVY [Peptide 85.0024]?
A: IC50 (DRB1*1101; Binding affinity DRB1 *1101): > 20 µM; IC50 (DRB1*1302): > 20 µM

Q: How did the “A2.1 relative binding (ratio of binding of test peptide relative to standard peptide)” value (A2.1 HLA molecules) turn out when WEELSVMEV was run?
A: Its value is 0.

Q: What about the “binding to HLA-A2.1 (column 3; no allele head shown for these rows)” value (HLA-A*0201 (HLA-A2.1)) of the same molecule?
A: Its value is 0.

Q: YMFLWGPRV was tested. Which “A2 Bind.” value (A2.1 HLA molecules) did it give?
A: Its value is 0.2200.

Q: What about the “binding to HLA-A2.1 (column 3; no allele head shown for these rows)” value (HLA-A*0201 (HLA-A2.1)) of the same molecule?
A: Its value is 0.22.

Q: How did the IC50 (DR4w4 (DRB1*0401); read-out: DRB1*0401) turn out when “730.15 (AAKAAAAAAAAA; also: non-natural residue (10)) [Peptide 730.15]” was run?
A: Its IC50 is over 0.889 µM.

Q: How did the “A2 Bind.” value (A2.1 HLA molecules) turn out when AMGLVCVQV was run?
A: Its value is 0.0120.

Q: What about the “binding to HLA-A2.1 (column 3; no allele head shown for these rows)” value (HLA-A*0201 (HLA-A2.1)) of the same molecule?
A: The value was 0.012.

Q: For Ac-NPDAENWNSQFEILEDAA [Peptide 725.01], which IC50 (DRB1*0802) is on record?
A: Its IC50 is over 25 µM.

Q: With GLSYDGLLG as the molecule, how does the “A2.1 relative binding (ratio of binding of test peptide relative to standard peptide)” value (A2.1 HLA molecules) read?
A: The value was 0.

Q: And the “binding to HLA-A2.1 (column 3; no allele head shown for these rows)” value (HLA-A*0201 (HLA-A2.1))?
A: The value was 0.

Q: For LMLGTLEEV, which “A2 Bind.” value (A2.1 HLA molecules) is on record?
A: Its value is 0.1300.

Q: And the “binding to HLA-A2.1 (column 3; no allele head shown for these rows)” value (HLA-A*0201 (HLA-A2.1))?
A: Its value is 0.13.

Q: Which results are given for ALAETSYVKVL?
A: A2 Bind. (A2.1 HLA molecules): 0.0120; binding to HLA-A2.1 (column 3; no allele head shown for these rows) (HLA-A*0201 (HLA-A2.1)): 0.012

Q: With Ac-AAAKAAAAAAYAA [Peptide 702.08] as the molecule, how does the IC50 (DR4w4 (DRB1*0401)) read?
A: The IC50 was 0.348 µM.

Q: `CC[C@H](C)[C@H](NC(=O)[C@H](CC(N)=O)NC(=O)[C@H](C)NC(=O)[C@H](CC(=O)O)NC(=O)CNC(=O)[C@H](CCCCN)NC(=O)[C@H](CC(C)C)NC(=O)[C@H](Cc1c[nH]cn1)NC(=O)[C@@H](NC(=O)[C@@H](NC(=O)[C@@H]1CCCN1C(=O)[C@@H](NC(=O)[C@@H](N)[C@@H](C)O)[C@@H](C)O)[C@@H](C)CC)[C@@H](C)CC)C(=O)N[C@@H](CC(C)C)C(=O)N[C@@H](CCCCN)C(=O)O` [Peptide 1601.25] was tested. Which IC50 (DRB5*0101) did it give?
A: The IC50 was over 20 µM.

Q: For FVNQHLCGSHLVEAL [Peptide 9000.0047], which IC50 (DR7 (DRB1*0701)) is on record?
A: The IC50 was 6.79 µM.

Q: For GVILYSDPADYFAPG [Peptide 68.0170], which IC50 (DRB1*1101; Binding affinity DRB1 *1101) is on record?
A: The IC50 was over 20 µM.

Q: And the IC50 (DRB1*0802)?
A: The IC50 was over 20 µM.

Q: With CYSLYGTTLEQQYNK [Peptide 85.0004] as the molecule, how does the IC50 (DRB1*0901) read?
A: Its IC50 is 26 µM.

Q: VMIAMEGGHV was tested. Which “A2 Bind.” value (A2.1 HLA molecules) did it give?
A: The value was 0.0530.

Q: And the “binding to HLA-A2.1 (column 3; no allele head shown for these rows)” value (HLA-A*0201 (HLA-A2.1))?
A: Its value is 0.053.

Q: With LHLLSNDMCARAYSE [Peptide 68.0140] as the molecule, how does the IC50 (DRB1*1101; Binding affinity DRB1 *1101) read?
A: The IC50 was over 20 µM.

Q: And the IC50 (DRB5*0101)?
A: The IC50 was over 20 µM.

Q: What about the IC50 (DRB1*0802) of the same molecule?
A: The IC50 was over 20 µM.

Q: And the IC50 (DRB1*0901)?
A: The IC50 was over 20 µM.

Q: What about the IC50 (DR7 (DRB1*0701)) of the same molecule?
A: Its IC50 is over 20 µM.

Q: And the IC50 (DRB1*1501)?
A: Its IC50 is over 20 µM.

Q: What does the source list for IIHLKGDKNSLKCLR [90,0218]?
A: IC50 (DRB1*1101; […]): > 20 µM; IC50 (DRB1*0802): 5.03 µM; IC50 (DRB1*0901): > 20 µM; IC50 (DR7 (DRB1*0701)): > 20 µM

Q: Which “A2.1 relative binding (ratio of binding of test peptide relative to standard peptide)” value (A2.1 HLA molecules) does the source give for LLGDNQIMP here?
A: The value was 0.0001.

Q: And the “binding to HLA-A2.1 (column 3; no allele head shown for these rows)” value (HLA-A*0201 (HLA-A2.1))?
A: Its value is 0.0001.

Q: Which IC50 (DRB1*1501) does the source give for `CC[C@H](C)[C@H](NC(=O)CNC(=O)[C@H](CCCNC(=N)N)NC(=O)[C@H](CCCNC(=N)N)NC(=O)[C@H](Cc1ccc(O)cc1)NC(=O)[C@H](C)NC(=O)[C@H](Cc1ccc(O)cc1)NC(=O)[C@@H](N)CCC(=O)O)C(=O)N[C@@H](C)C(=O)N[C@@H](CCC(=O)O)C(=O)N[C@@H](C)C(=O)N[C@H](C(=O)NCC(=O)N[C@@H](CC(C)C)C(=O)N1CCC[C@H]1C(=O)O)C(C)C` [Peptide 68.0100] here?
A: The IC50 was over 20 µM.

Q: How did the “A2 Bind.” value (A2.1 HLA molecules) turn out when RMLTIPQSV was run?
A: The value was 0.0580.

Q: Which “A2 Bind.” value (A2.1 HLA molecules) does the source give for YLLLYFSPV here?
A: Its value is 0.7500.

Q: And the “A2.1 Binding” value (A2.1 HLA molecules)?
A: Its value is 0.75.

Q: For YEFLWGPRA, which “A2.1 relative binding (ratio of binding of test peptide relative to standard peptide)” value (A2.1 HLA molecules) is on record?
A: Its value is 0.

Q: What about the “binding to HLA-A2.1 (column 3; no allele head shown for these rows)” value (HLA-A*0201 (HLA-A2.1)) of the same molecule?
A: Its value is 0.

Q: With YLCCGITLL as the molecule, how does the “A2 Bind.” value (A2.1 HLA molecules) read?
A: The value was 0.0210.

Q: And the “A2.1 Binding” value (A2.1 HLA molecules)?
A: Its value is 0.021.

Q: With FLPSDFFPSI as the molecule, how does the “A2 Bind.” value (A2.1 HLA molecules) read?
A: The value was 0.2100.

Q: Which “A2 Bind.” value (A2.1 HLA molecules) does the source give for WLLRGTSFV here?
A: The value was 0.1000.

Q: ALBRWGLLV [Peptide 34.0132] was tested. Which “A*0201” value (A2.1 HLA molecules) did it give?
A: The value was 0.0960.

Q: For LMVTVYYGV, which A2 (A2.1 HLA molecules) is on record?
A: The A2 was 0.4400.

Q: What about the IC50 (HLA-A*0201 (HLA-A2.1)) of the same molecule?
A: The IC50 was 0.0033 µM.

Q: LLALLSCLTV [Peptide F127.03] was tested. Which “A*0201” value (A2.1 HLA molecules) did it give?
A: Its value is 0.0240.
